Data from US12611459B2, “System and method for unbinding of plasma protein-bound active agents using an ultrasound system” (The Brigham and Women's Hospital, Inc., priority 2019, dated 2026).

Experiments:
[1] = system: plasma proteins, primarily albumin; conditions: cited from earlier work
[2] = rat, in vivo
Procedure: In this example the effects of focused ultrasound (FUS) on unbinding phenytoin from albumin was evaluated in an animal model (rat). The enhancement of phenytoin was assessed using immunohistochemistry (IHC) followed by intraperitoneal injection of phenytoin and subsequent sonication of the unilateral hemisphere. All IHC was performed on an automated staining platform. Hematoxylin and eosin (H&E) staining was also performed to assess for tissue hemorrhage. The same sonication parameters and device were used as in the first example described above except the sonication was delivered for 35 minutes.
FUS was delivered to the brain areas in the right hemisphere at a fundamental frequency of 250 kHz in a pulsed manner (55 ms TBD, 4 Hz PRF, at 5 W/cm^2 Isppa) for 35 minutes. FIG. 4 illustrates example mosaic H&E microscope images 402, example, mosaic phenytoin-stained IHC images 404 and example inverted grayscale images 406 of the phenytoin IHC in accordance with an embodiment. […] In the IHC images 404, the dotted ovals 408 indicate the approximate location of the FUS sonication focus (in the right hemisphere of the brain).

[3] = molecular target: bovine serum albumin (BSA) (Bos taurus, UniProt P02769); assay: equilibrium dialysis of albumin-phenytoin solution under focused ultrasound (FUS), HPLC of dialysate; type: in vitro ADME; conditions: for phenytoin level in dialysate: FUS 250 kHz, 55 ms TBD, 4 Hz PRF, 5 W/cm2 Isppa, 55 min; for elevation of unbound phenytoin level at the focus: p<0.05
Procedure: The ability of FUS to unbind phenytoin from albumin was assessed in this example by an equilibrium dialysis (ED), whereby the cocktail of albumin-phenytoin was sonicated, and unbound phenytoin was allowed to pass through the membrane to be collected and analyzed. As a part of in vitro testing, a visible dye, Toluidine Blue O, was dissolved in an aqueous solution of albumin and the spatial distribution of the degree of its unbinding from the albumin through the application of FUS was qualitatively evaluated via gel infiltration using agar gel block.
In this example, an in vitro experimental chamber was constructed using a 3D printer (clear resin) to measure the effects of FUS on albumin-phenytoin binding. The chamber includes four slots to place four microdialysis cassettes (7 kMW cut-off pore size; 4×4×0.8 cm; H×L×W) whereby one is placed perpendicular to the sonication focus (‘FF’), and three others are placed away from the focus (‘F01’ through ‘F03’). A FUS transducer having 13 mm focal length (away from the exit plane) and operating at a fundamental frequency of 250 kHz was used to sonicate the middle of the dialysis window (‘FF’). The output pressure wave from the transducer was calibrated for the input signal generator and the acoustic map perpendicular to the sonication axis was mapped using known methods. An identical setup was prepared separately and was not sonicated to provide a control.
In this example, bovine serum albumin (BSA) was dissolved in a phosphate-buffered saline (PBS) (pH7.4) at a concentration of 46 mg/mL concentration, and 200 mL of resulting solution was poured into the chamber. The experiment was conducted at a room temperature (20-21° C.) and the solution temperature was equilibrated at the ambient temperature. The solution was not degassed and kept the ambient gas content (O2 6.1 ppm; measured using dissolved oxygen meter). The wall of the chamber was padded with rubber inserts to absorb the incident acoustic waves to prevent reflection or reverberation within the chamber.
In this example, phenytoin was dissolved (15 μg/mL) in PBS having bovine serum albumin (BSA) concentration of 45 mg/mL to emulate the clinical serum concentration. The temperature of the solution was monitored during the sonication to examine the potential effect from the temperature of the solution on the bound phenytoin. The dialysis cassettes, after hydration according to known methods, were filled with PBS (0.5 ML) and were placed into the bath. Subsequently, sonication was given for 55 min at 250 kHz in pulsed manner (55 ms TBD, 4 Hz PRF, at 5 W/cm2 Isppa Spatial-Peak Pulse-Average Intensity, i.e. 22% duty cycle). The mechanical index (MI) of the focus was 0.8 (corresponding to peak negative pressure of 391 kPa). The temperature of the solution was monitored. […] The obtained samples underwent High Performance Liquid Chromatography (HPLC) for the measurement of phenytoin concentration after the calibration of the known absolute level of the phenytoin. The HPLC system consisted of an autosampler, a dual piston pump, and an electrochemical detector coupled to a guard cell and an analytical cell.

Sequence of bovine serum albumin (BSA) (P02769 25-607): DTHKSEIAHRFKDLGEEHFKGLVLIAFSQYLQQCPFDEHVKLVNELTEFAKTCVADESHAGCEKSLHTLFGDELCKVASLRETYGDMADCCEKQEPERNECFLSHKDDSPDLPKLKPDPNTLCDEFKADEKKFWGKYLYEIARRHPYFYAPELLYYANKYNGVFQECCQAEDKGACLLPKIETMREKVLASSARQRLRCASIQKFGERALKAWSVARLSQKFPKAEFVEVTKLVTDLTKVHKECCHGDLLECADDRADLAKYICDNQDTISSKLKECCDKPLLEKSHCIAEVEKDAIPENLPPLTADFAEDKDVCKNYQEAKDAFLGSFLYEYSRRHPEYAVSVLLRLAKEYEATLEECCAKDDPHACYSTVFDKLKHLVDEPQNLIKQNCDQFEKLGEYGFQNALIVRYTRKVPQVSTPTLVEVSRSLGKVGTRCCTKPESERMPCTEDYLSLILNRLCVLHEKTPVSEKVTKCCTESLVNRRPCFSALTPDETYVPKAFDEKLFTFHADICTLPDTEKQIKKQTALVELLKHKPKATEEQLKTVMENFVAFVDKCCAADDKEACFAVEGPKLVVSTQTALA

## O=C1NC(=O)C(c2ccccc2)(c2ccccc2)N1 [phenytoin]
[1]; at clinical dose
  fraction available in an unbound state: ~12%
[1]; primarily to albumin
  binding level to plasma proteins: approximately 90%
[2]
  tissue injury or hemorrhage (H&E): no evidence of tissue injury or hemorrhage
[3]; at the acoustic focus (FF), n=6
  phenytoin level in dialysate: 1.38 ± 0.2 µg/mL
[3]; compared to outside of focus
  elevation of unbound phenytoin level at the focus: ~21.4%
[3]; compared to the control
  elevation of unbound phenytoin level at the focus: approximately 27.7%
[3]; control chamber (CTRL), not sonicated, n=12
  averaged phenytoin level in dialysate: 1.52 ± 0.16 µg/mL
[3]; outside of focus (FO), n=12
  phenytoin level in dialysate: 1.13 ± 0.08 µg/mL
[3]; p>0.1
  difference in phenytoin level between control condition and outside of focus: no significant difference
